# Measurements: PubChem BioAssay (NCI)
# “And” between values parts separate entries of the source, which are not always exact repeats. Identical values can stand only once.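 Following 48 hours of exposure in 96-well plates, responses at five concentrations were used to interpolate endpoints linearly. GI50 = concentration required for 50% inhibition of growth. The concentration for full growth arrest is given as TGI.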
# Legend:
# Assay in all cases: DTP human tumour cell line panel, 48 h
# DLD-1 colon = tested on: DLD-1 colon
# LXFL 529 NSCLC = tested on: LXFL 529 NSCLC
# M19-MEL melanoma = tested on: M19-MEL melanoma
# SNB-78 CNS = tested on: SNB-78 CNS
# XF 498 CNS = tested on: XF 498 CNS
# HS 578T breast = tested on: HS 578T breast
# MDA-N = tested on: MDA-N
# T-47D breast = tested on: T-47D breast
# NCI/ADR-RES ovarian = tested on: NCI/ADR-RES ovarian
smiles,measurement,setting,value
COC(=O)C12CC3CC(C1)CC(C(=O)OC)(C3)C2,TGI,DLD-1 colon,> 100 µM
same,TGI,LXFL 529 NSCLC,> 100 µM
same,TGI,M19-MEL melanoma,> 100 µM
same,TGI,SNB-78 CNS,> 100 µM
same,TGI,XF 498 CNS,> 100 µM
CC[O-].CC[O-].O=C1C(c2ccccc2)=C([O-])c2ccccc21.O=C1C(c2ccccc2)=C([O-])c2ccccc21.[Ti+4],GI50,DLD-1 colon,> 100 µM
same,TGI,DLD-1 colon,> 100 µM
same,GI50,LXFL 529 NSCLC,> 100 µM
same,TGI,LXFL 529 NSCLC,> 100 µM
same,GI50,M19-MEL melanoma,> 100 µM
same,TGI,M19-MEL melanoma,> 100 µM
same,GI50,SNB-78 CNS,> 100 µM
same,TGI,SNB-78 CNS,> 100 µM
O=[N+]([O-])c1ccc(N=Nc2c(O)ccc3ccccc23)cc1,GI50,HS 578T breast,18.3 µM and > 100 µM
same,TGI,HS 578T breast,46.6 µM and > 100 µM
same,TGI,MDA-N,> 100 µM
same,TGI,T-47D breast,> 100 µM
COc1ccc2c(c1)CCc1[nH]c3ccccc3c1CCCC2,TGI,HS 578T breast,> 10 µM
same,TGI,MDA-N,> 10 µM
same,TGI,NCI/ADR-RES ovarian,> 10 µM
same,TGI,T-47D breast,> 10 µM
COc1cc(C(=O)C/C(CCC(=O)Nc2ccc(Cl)cc2C)=N/NC(=O)C(N)=O)ccc1O,TGI,DLD-1 colon,> 100 µM
same,TGI,LXFL 529 NSCLC,> 100 µM
same,TGI,M19-MEL melanoma,> 100 µM
same,TGI,SNB-78 CNS,> 100 µM
same,TGI,XF 498 CNS,> 100 µM
Cc1cc(-c2nnc(N)nc2-c2ccc(F)cc2)cc(Cl)n1,GI50,HS 578T breast,> 100 µM
same,TGI,HS 578T breast,> 100 µM
same,GI50,NCI/ADR-RES ovarian,57.4 µM
same,TGI,NCI/ADR-RES ovarian,> 100 µM
same,GI50,T-47D breast,28.3 µM
same,TGI,T-47D breast,> 100 µM
O=C([O][Hg][CH2]C1COCC([CH2][Hg][O]C(=O)c2ccccc2)O1)c1ccccc1 (centres undefined),GI50,HS 578T breast,19.8 µM
same,TGI,HS 578T breast,65.8 µM
same,GI50,NCI/ADR-RES ovarian,21.1 µM
same,TGI,NCI/ADR-RES ovarian,61.6 µM
Cc1occc1C(=S)Nc1ccc(Cl)c(/C=N/OC(C)C)c1,TGI,HS 578T breast,67.9 µM
same,TGI,MDA-N,45 µM
same,TGI,NCI/ADR-RES ovarian,> 58 µM
same,TGI,T-47D breast,> 41.6 µM
CC(C)CNc1nc(-c2ccccc2)nc2ccccc12,GI50,HS 578T breast,16.5 µM
same,TGI,HS 578T breast,33.9 µM
same,GI50,NCI/ADR-RES ovarian,13.4 µM
same,TGI,NCI/ADR-RES ovarian,31.4 µM
same,GI50,T-47D breast,21.6 µM
same,TGI,T-47D breast,> 100 µM
COc1ccc(C2=C(c3ccc(OC)c(OC)c3)C(=O)OC2)cc1,GI50,HS 578T breast,0.255 µM
same,TGI,HS 578T breast,0.792 µM
same,GI50,NCI/ADR-RES ovarian,< 0.01 µM
same,TGI,NCI/ADR-RES ovarian,1.12 µM
same,GI50,T-47D breast,1.66 µM
same,TGI,T-47D breast,> 91.8 µM
CCCN1CCN(c2ccc3nc(-c4ccc5nc(-c6cc(OC)ccc6OC)[nH]c5c4)[nH]c3c2)CC1,GI50,HS 578T breast,20.1 µM
same,TGI,HS 578T breast,55.6 µM
same,GI50,NCI/ADR-RES ovarian,1.99 µM
same,TGI,NCI/ADR-RES ovarian,4.29 µM
same,GI50,T-47D breast,21.6 µM
same,TGI,T-47D breast,54.1 µM
CC1=C2C[C@H]3[C@@H](CC=C4C[C@@H](O)CC[C@@]43C)[C@@H]2CC[C@]12O[C@@H]1C[C@H](C)CN[C@H]1[C@H]2C,GI50,HS 578T breast,> 50 µM and 35 µM
same,TGI,HS 578T breast,> 100 µM
same,GI50,NCI/ADR-RES ovarian,38.5 µM and 20.3 µM
same,TGI,NCI/ADR-RES ovarian,50 µM and 47.5 µM
same,GI50,T-47D breast,13.3 µM and 16.7 µM
same,TGI,T-47D breast,32.8 µM and 34.9 µM
Cc1cc(C)nc(NS(=O)(=O)c2ccc(Nc3c4ccc(Cl)cc4nc4c(C(=O)Nc5ccc(S(=O)(=O)N=C(N)N)cc5)cccc34)cc2)n1,TGI,DLD-1 colon,> 100 µM
same,TGI,LXFL 529 NSCLC,> 100 µM
same,TGI,M19-MEL melanoma,> 100 µM
same,TGI,SNB-78 CNS,> 100 µM
same,TGI,XF 498 CNS,> 100 µM
c1ccc2c(c1)-c1ccccc1C2N1CC2CCC(CC2)C1,TGI,HS 578T breast,33.2 µM
same,TGI,MDA-N,> 100 µM
same,TGI,NCI/ADR-RES ovarian,39.5 µM
same,TGI,T-47D breast,43.3 µM
CC(C)C1CCC/C=C/C=C/C=C/C=C/C(OC2OC(C)C(O)C(N)C2O)CC2OC(O)(CC(O)CC(O)C(O)CCC(=O)O1)CC(O)C2C(=O)O (centres undefined),TGI,LXFL 529 NSCLC,> 52.5 µM
same,TGI,M19-MEL melanoma,> 52.5 µM
same,TGI,SNB-78 CNS,> 52.5 µM
CN(C)C1CCN(C(=O)c2ccc(NC(=O)Nc3ccc(-c4nc(N5CCOCC5)nc(N5CCOCC5)n4)cc3)cc2)CC1,GI50,HS 578T breast,< 0.01 µM and 0.00879 µM and 0.025 µM
same,TGI,HS 578T breast,0.061 µM and 0.0697 µM and 0.343 µM
same,GI50,NCI/ADR-RES ovarian,29.4 µM and 4.87 µM
same,TGI,NCI/ADR-RES ovarian,> 100 µM
same,GI50,T-47D breast,< 0.01 µM and 0.00386 µM and 0.0056 µM
same,TGI,T-47D breast,0.0345 µM and 0.0176 µM and 0.0884 µM
CC[Si](CC)(CC)OC[C@]1([C@@H]2COC(C)(C)O2)CC=CC(=O)O1,GI50,HS 578T breast,34.6 µM
same,TGI,HS 578T breast,> 100 µM
same,GI50,NCI/ADR-RES ovarian,32.1 µM
same,TGI,NCI/ADR-RES ovarian,> 100 µM
same,GI50,T-47D breast,> 100 µM
same,TGI,T-47D breast,> 100 µM
Cc1cc(N2CCN(c3ccnc4cc(Cl)ccc34)CC2)nc(NC2CCCCC2)n1,GI50,HS 578T breast,2.1 µM
same,TGI,HS 578T breast,6.62 µM
same,GI50,NCI/ADR-RES ovarian,1.91 µM
same,TGI,NCI/ADR-RES ovarian,3.97 µM
same,GI50,T-47D breast,1.89 µM
same,TGI,T-47D breast,4.7 µM
O=C(Nc1ccc(F)cc1F)c1cc(Br)ccc1O,GI50,HS 578T breast,2.24 µM
same,TGI,HS 578T breast,8.35 µM
same,GI50,NCI/ADR-RES ovarian,2.86 µM
same,TGI,NCI/ADR-RES ovarian,18.2 µM
same,GI50,T-47D breast,1.81 µM
same,TGI,T-47D breast,7.19 µM
O=S(=O)(c1ccc(N=C2NN=C(c3c[nH]c4ccccc34)CS2)cc1)N1CCOCC1,GI50,HS 578T breast,31.4 µM
same,TGI,HS 578T breast,> 100 µM
same,GI50,NCI/ADR-RES ovarian,20.6 µM
same,TGI,NCI/ADR-RES ovarian,> 100 µM
same,GI50,T-47D breast,3.56 µM
same,TGI,T-47D breast,78.6 µM
COc1ccc(-c2nc3ncccn3c2/C=C/C(=O)c2cc(OC)c(OC)c(OC)c2)cc1,GI50,HS 578T breast,1.91 µM
same,TGI,HS 578T breast,14.7 µM
same,GI50,NCI/ADR-RES ovarian,1.56 µM
same,TGI,NCI/ADR-RES ovarian,4.86 µM
same,GI50,T-47D breast,2.53 µM
same,TGI,T-47D breast,14.9 µM
COc1cc2c(cc1OCCCCCCN1CCN(c3ncnc4ccccc34)CC1)N=CC1CCCN1C2=O (centres undefined),GI50,HS 578T breast,0.0887 µM
same,TGI,HS 578T breast,0.666 µM
same,GI50,NCI/ADR-RES ovarian,0.899 µM
same,GI50,T-47D breast,0.0237 µM
same,TGI,T-47D breast,0.0792 µM
CC/C(=C(/CC)c1ccc(O)cc1)c1ccc([O-])cc1.CC/C(=C(/CC)c1ccc(O)cc1)c1ccc([O-])cc1.O=C([CH-]C(=O)c1ccccc1)c1ccccc1.O=C([CH-]C(=O)c1ccccc1)c1ccccc1.[Ti+4],GI50,DLD-1 colon,10.8 µM
same,TGI,DLD-1 colon,28.9 µM
same,GI50,SNB-78 CNS,27.1 µM
same,TGI,SNB-78 CNS,> 100 µM
CCOc1ccc(Nc2nc(-c3ccc4c(c3)NC(=O)CO4)cs2)cc1,GI50,HS 578T breast,22.5 µM
same,TGI,HS 578T breast,> 100 µM
same,GI50,NCI/ADR-RES ovarian,4.12 µM
same,TGI,NCI/ADR-RES ovarian,> 100 µM
same,GI50,T-47D breast,1.94 µM
same,TGI,T-47D breast,10.4 µM
COc1ccc2c(CN3CCC[C@H]3C(=O)O)cc3cc4c(cc3c2c1)OCO4,GI50,HS 578T breast,11.6 µM
same,TGI,HS 578T breast,48 µM
same,GI50,NCI/ADR-RES ovarian,23.8 µM
same,TGI,NCI/ADR-RES ovarian,> 100 µM
same,GI50,T-47D breast,20 µM
same,TGI,T-47D breast,> 100 µM
CCCC(C)C[C@@H](C)CC(C)/C=C(\C)c1oc(=O)c(C)c(O)c1C (some centres undefined) (tested in a mixture with another compound),TGI,DLD-1 colon,27.8 µM
same,TGI,LXFL 529 NSCLC,25.9 µM
same,TGI,SNB-78 CNS,45.9 µM
COc1cc2cc(C(=O)Nc3cc(N)c4ccccc4c3CCCl)[nH]c2c(OC)c1OC,GI50,HS 578T breast,0.0899 µM
same,TGI,HS 578T breast,> 50 µM
same,GI50,MDA-N,0.0568 µM
same,TGI,MDA-N,0.219 µM
same,GI50,NCI/ADR-RES ovarian,0.0329 µM
same,TGI,NCI/ADR-RES ovarian,1.91 µM
same,GI50,T-47D breast,0.0372 µM
same,TGI,T-47D breast,0.237 µM
Nc1cc(-c2cccc(OC(F)(F)F)c2)nc2ccc(N3CCCC3)cc12,GI50,HS 578T breast,0.051 µM and 0.0484 µM and 0.0347 µM
same,TGI,HS 578T breast,13.2 µM and > 100 µM
same,GI50,NCI/ADR-RES ovarian,0.0362 µM and 0.0363 µM and 0.0324 µM
same,TGI,NCI/ADR-RES ovarian,20 µM and > 100 µM
same,GI50,T-47D breast,18.8 µM
same,TGI,T-47D breast,92.4 µM
CN(C)CC/C(=N\Nc1ccccc1)c1ccccc1,TGI,DLD-1 colon,> 100 µM
same,TGI,M19-MEL melanoma,77.9 µM
same,TGI,SNB-78 CNS,89.7 µM
same,TGI,XF 498 CNS,23.4 µM
